Data as given in publication PMC8236048, “Pharmaceutical design of a delivery system for the bacteriocin lacticin 3147” (Drug Delivery and Translational Research, 2021).

Legend:
[1] = tested on: L. lactis HP; settings: at a neutral pH; cited from earlier work
Excerpt: Lacticin 3147 is a two-peptide (Ltnα and Ltnβ) bacteriocin produced by Lactococcus lactis DPC6577 (Fig. 1). It is classified as a lantibiotic due to the presence of lanthionine rings in its structure. The two peptides act synergistically, targeting lipid II, a precursor of peptidoglycan synthesis in Gram-positive bacteria, leading to inhibition of cell wall synthesis, pore formation, and eventual cell death. […] These masses correspond with those previously reported in the literature. Lacticin 3147′s activity against various strains including L. monocytogenes and C. difficile has been previously reported in the literature; however, for the purpose of this study, L. monocytogenes was used to establish the impact of solution composition, pH, and process ...

[2] = tested on: L. monocytogenes ATCC 1916; assay: Growth curve bioactivity assay versus L. monocytogenes ATCC 1916; type: cell-based; settings: 0.5 h, 37 °C, 300 rpm, 0.2 µm PES filtered, growth curve 24 h
Experimental: An overnight culture of L. monocytogenes ATCC1916 was grown in TSB media supplemented with 6 g/L yeast at 37 °C. Freeze-dried Ltnα and Ltnβ were resuspended individually in 70% IPA to make a 1-mg/ml solution and filtered through a 0.2-µm filter (polyethersulfone) PES filter. They were then diluted in sterile PBS to a final peptide concentration of 50 µg/ml. Peptide solutions were added in triplicate to a 96-well plate with sufficient PBS to give a volume of 50 µl. 150 µl of diluted bacterial cell culture (optical density (OD) of 0.1 at 595 nm) was then added to the wells. Final peptide concentrations of 150 nM (0.50 µg/ml Ltnα, 0.43 µg/ml Ltnβ), 300 nM (0.99 µg/ml Ltnα, 0.85 µg/ml Ltnβ), and 400 nM (1.31 µg/ml Ltnα, 1.14 µg/ml Ltnβ) were obtained when the wells were filled to 200 µl. Blanks were set up in triplicate with media only and PBS only. The three control wells were also set up with bacterial culture and PBS only. The 96-well plate was incubated in a Biotek ELx808 Ultra microplate reader at 37 °C for 24 h. Readings were taken at a wavelength of 590 nm every 30 min for 24 h with the plate shaken mildly before each reading.
An excess quantity of freeze-dried Ltnα and Ltnβ were resuspended individually in PBS buffer/FaSSGF/FaSSIF. The samples were then incubated for 0.5 h at 37 ± 0.5 °C with stirring at 300 rpm. At the end of the incubation period, samples were filtered through a 0.2-µm PES syringe filter and employed in the in vitro activity assay. Briefly, 25 µl of each of the filtered peptide solutions were added in triplicate to the same wells of a 96-well plate. Three control wells were set up containing 50 µl of PBS alone. 150 μl of L. monocytogenes ATCC 1916 with an OD of 0.1 at 595 nm was added to each well. The 96-well plate was then incubated in a Biotek ELx808 Ultra microplate reader at 37 °C for 24 h. The readings were taken as previously described.

lacticin 3147
active: activity against L. lactis subsp. cremoris HP [1] | activity against L. monocytogenes ATCC 1916 after addition in excess to FaSSGF and filtration ([2]; FaSSGF (pH 1.6)) | activity against L. monocytogenes ATCC 1916 after addition in excess to FaSSIF and filtration ([2]; FaSSIF (pH 6.5)) | activity against L. monocytogenes ATCC 1916 after addition in excess to PBS and filtration ([2]; PBS (pH 7.4))
